In ChEMBL document CHEMBL5291721, “A preclinical secondary pharmacology resource illuminates target-adverse drug reaction associations of marketed drugs” (Nat Commun, 2023):

How the values were obtained:
[1] = target: T1, Prostaglandin G/H synthase 1 (Homo sapiens, UniProt P23219); type: functional
[2] = target: T1, Prostaglandin G/H synthase 1; type: functional; remark: listed apart in the source
Histamine H3 receptor = Histamine H3 receptor (Homo sapiens, UniProt Q9Y5N1)
[3] = target: T2, Alpha-1A adrenergic receptor (Homo sapiens, UniProt P35348); type: functional, cell-based
T2 sequence (P35348 whole entry): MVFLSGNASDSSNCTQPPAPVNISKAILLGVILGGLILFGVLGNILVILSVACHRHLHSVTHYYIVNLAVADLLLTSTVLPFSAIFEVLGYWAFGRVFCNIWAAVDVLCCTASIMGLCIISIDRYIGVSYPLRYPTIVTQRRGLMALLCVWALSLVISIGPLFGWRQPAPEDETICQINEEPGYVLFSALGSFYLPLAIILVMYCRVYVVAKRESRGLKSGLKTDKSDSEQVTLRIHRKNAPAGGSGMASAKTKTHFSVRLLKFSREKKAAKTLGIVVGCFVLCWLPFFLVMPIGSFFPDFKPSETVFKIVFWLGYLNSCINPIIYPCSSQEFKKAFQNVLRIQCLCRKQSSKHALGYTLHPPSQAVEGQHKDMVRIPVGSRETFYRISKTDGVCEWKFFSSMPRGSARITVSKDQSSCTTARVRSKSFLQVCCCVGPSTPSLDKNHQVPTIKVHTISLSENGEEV

[4] = target: T3, 5-hydroxytryptamine receptor 1A (Homo sapiens, UniProt P08908)
T3 sequence (P08908 whole entry): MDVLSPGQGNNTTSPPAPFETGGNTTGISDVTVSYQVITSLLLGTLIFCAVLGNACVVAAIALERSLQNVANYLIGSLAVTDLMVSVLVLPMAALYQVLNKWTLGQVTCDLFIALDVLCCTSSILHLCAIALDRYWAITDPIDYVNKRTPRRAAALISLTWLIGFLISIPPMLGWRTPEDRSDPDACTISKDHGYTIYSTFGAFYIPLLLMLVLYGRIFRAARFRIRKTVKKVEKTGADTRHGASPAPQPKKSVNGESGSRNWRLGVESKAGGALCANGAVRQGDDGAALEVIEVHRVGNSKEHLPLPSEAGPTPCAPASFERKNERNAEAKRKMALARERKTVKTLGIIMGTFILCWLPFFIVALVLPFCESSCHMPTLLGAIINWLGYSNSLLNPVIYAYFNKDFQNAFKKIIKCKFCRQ

Progesterone receptor = target: T4, Progesterone receptor (Homo sapiens, UniProt P06401)
T4 sequence (P06401 whole entry): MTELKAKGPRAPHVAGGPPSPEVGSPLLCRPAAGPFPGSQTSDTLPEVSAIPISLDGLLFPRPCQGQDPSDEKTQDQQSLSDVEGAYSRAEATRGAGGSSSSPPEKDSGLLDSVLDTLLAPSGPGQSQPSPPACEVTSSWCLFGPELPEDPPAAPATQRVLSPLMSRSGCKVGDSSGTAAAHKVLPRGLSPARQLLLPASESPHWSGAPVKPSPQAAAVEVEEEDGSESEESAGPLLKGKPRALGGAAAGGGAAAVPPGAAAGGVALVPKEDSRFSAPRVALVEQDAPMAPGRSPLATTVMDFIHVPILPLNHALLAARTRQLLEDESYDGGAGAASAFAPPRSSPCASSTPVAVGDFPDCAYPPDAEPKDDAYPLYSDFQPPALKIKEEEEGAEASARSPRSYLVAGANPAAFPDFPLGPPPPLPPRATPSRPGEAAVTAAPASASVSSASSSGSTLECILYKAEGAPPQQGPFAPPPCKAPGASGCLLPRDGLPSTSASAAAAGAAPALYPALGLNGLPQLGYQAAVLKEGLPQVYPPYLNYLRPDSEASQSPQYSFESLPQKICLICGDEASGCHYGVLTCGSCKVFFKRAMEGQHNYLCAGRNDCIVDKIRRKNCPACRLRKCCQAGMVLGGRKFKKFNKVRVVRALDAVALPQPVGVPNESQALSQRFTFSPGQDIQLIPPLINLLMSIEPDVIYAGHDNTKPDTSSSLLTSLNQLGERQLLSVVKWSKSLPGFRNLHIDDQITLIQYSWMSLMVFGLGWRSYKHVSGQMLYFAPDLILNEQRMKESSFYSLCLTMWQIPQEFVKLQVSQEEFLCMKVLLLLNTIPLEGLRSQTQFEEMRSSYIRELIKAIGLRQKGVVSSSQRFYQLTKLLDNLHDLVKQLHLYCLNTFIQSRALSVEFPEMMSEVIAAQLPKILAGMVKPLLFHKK

Prothrombin = Prothrombin (Homo sapiens, UniProt P00734); type: functional
[5] = target: T5, Amine oxidase [flavin-containing] A (Homo sapiens, UniProt P21397); type: functional
T5 sequence (P21397 whole entry): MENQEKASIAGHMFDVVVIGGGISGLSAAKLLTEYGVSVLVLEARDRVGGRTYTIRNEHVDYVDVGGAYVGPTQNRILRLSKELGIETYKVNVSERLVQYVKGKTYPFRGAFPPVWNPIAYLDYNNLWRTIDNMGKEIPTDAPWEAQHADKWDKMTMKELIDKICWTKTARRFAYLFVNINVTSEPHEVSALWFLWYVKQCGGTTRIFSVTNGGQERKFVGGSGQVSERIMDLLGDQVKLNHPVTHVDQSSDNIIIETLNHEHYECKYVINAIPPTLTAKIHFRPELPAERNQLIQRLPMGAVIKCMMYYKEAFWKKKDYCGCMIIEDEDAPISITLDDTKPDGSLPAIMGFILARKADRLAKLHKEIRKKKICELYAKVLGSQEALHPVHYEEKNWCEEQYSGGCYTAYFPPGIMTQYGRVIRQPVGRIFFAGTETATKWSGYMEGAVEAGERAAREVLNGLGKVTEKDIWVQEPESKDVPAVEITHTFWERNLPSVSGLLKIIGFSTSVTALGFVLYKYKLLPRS

D(1A) dopamine receptor = D(1A) dopamine receptor (Homo sapiens, UniProt P21728)
[6] = target: Sodium-dependent dopamine transporter (Homo sapiens, UniProt Q01959)
[7] = target: 5-hydroxytryptamine receptor 2B (Homo sapiens, UniProt P41595); type: functional, cell-based
Note: assay procedure not described here.

5-hydroxytryptamine receptor 2B, sequence (P41595 whole entry): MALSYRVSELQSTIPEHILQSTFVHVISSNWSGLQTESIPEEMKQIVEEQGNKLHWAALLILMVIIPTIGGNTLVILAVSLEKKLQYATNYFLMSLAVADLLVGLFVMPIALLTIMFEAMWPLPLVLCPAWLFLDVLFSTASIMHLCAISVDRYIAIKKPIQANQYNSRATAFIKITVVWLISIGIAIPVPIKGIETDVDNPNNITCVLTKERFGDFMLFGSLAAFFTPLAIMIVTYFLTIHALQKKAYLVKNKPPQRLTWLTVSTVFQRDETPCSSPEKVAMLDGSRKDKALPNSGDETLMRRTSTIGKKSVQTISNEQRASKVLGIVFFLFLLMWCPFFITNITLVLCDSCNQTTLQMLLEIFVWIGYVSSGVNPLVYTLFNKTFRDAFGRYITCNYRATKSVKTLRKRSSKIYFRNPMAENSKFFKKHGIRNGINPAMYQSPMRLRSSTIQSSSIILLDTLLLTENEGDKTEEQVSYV
T1 sequence (P23219 whole entry): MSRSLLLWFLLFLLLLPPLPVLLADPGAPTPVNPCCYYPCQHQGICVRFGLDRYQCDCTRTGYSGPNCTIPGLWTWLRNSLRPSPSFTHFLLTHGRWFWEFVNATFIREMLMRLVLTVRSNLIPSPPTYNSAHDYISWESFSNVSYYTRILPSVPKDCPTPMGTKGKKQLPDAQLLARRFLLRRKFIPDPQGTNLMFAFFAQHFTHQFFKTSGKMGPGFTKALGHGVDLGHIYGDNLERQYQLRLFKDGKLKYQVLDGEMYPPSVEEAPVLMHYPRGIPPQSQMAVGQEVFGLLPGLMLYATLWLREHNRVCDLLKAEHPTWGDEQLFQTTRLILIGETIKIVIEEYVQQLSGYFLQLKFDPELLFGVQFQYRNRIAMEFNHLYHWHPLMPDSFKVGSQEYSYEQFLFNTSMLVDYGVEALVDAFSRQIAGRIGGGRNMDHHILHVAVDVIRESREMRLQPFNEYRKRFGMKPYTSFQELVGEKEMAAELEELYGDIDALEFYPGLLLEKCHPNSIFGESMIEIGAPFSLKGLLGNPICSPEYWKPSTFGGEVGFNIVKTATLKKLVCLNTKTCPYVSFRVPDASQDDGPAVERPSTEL
Sodium-dependent dopamine transporter, sequence (Q01959 whole entry): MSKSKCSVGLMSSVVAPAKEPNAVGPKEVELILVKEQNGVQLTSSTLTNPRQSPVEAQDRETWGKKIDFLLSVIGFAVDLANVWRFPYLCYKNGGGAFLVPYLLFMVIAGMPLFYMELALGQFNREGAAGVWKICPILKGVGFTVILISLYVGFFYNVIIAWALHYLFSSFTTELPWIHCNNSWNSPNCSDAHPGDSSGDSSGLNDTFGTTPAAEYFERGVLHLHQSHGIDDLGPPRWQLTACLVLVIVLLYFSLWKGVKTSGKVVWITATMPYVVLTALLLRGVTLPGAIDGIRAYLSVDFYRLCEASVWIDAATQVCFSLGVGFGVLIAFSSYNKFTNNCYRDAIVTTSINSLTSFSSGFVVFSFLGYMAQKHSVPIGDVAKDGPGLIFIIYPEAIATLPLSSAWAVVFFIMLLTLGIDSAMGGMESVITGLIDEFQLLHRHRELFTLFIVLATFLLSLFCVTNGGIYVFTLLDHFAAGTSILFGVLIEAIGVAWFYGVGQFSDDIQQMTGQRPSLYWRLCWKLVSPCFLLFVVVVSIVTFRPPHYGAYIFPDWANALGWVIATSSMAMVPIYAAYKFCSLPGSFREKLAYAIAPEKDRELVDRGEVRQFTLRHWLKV
D(1A) dopamine receptor, sequence (P21728 whole entry): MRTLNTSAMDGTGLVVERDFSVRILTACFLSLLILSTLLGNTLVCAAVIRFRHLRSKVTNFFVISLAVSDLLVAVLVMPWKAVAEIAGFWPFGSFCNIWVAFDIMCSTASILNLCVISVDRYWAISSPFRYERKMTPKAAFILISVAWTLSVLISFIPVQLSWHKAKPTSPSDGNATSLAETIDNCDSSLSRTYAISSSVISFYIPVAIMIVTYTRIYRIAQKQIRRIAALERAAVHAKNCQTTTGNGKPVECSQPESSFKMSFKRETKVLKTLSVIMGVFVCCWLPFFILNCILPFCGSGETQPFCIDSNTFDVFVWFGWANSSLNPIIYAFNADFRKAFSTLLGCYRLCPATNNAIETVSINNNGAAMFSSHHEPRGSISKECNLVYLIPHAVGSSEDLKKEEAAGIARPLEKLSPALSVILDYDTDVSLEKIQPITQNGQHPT
Histamine H3 receptor, sequence (Q9Y5N1 whole entry): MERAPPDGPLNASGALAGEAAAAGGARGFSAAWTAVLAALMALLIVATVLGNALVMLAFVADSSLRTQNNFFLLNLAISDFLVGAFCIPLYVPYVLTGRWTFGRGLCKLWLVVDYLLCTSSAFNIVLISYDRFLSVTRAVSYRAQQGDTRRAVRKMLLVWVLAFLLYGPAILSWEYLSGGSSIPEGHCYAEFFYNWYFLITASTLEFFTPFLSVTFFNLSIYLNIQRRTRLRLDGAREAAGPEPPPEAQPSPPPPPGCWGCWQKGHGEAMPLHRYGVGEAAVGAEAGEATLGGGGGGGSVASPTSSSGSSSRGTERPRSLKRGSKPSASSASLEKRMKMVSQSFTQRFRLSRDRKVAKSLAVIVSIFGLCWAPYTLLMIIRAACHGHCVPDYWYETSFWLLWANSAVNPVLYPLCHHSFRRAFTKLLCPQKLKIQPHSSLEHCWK

Compound | AC50 [1] [µM] | AC50 [2] [µM] | AC50 (Histamine H3 receptor) [µM] | AC50 [3] [µM] | AC50 [4] [µM] | AC50 (Progesterone receptor) [µM] | AC50 (Prothrombin) [µM] | AC50 [5] [µM] | AC50 (D(1A) dopamine receptor) [µM] | AC50 [6] [µM] | AC50 [7] [µM]
CCCCOc1ccc(CC(=O)NO)cc1 [BUFEXAMAC] | > 30 | > 30 | > 30 | > 30 | > 30 | > 30 | > 30 | > 30 | > 30 | > 30 | > 30
Cc1nnc(SCC2=C(C(=O)O)N3C(=O)[C@@H](NC(=O)Cn4cc(Cl)c(=O)c(Cl)c4)[C@H]3SC2)s1 [CEFAZEDONE] | 8.23 | 24.8 | > 30 | > 30 | > 30 | > 30 | > 30 | > 30 | > 30 | > 30 | > 30
CO/N=C(\C(=O)N[C@@H]1C(=O)N2C(C(=O)[O-])=C(C[n+]3cccc4c3CCC4)CS[C@H]12)c1csc(N)n1 [CEFPIROME] | > 30 | > 30 | > 30 | > 30 | > 30 | > 30 | > 30 | > 30 | > 30 | > 30 | > 30
Nc1ncnc(Nc2ccc(Cl)cc2)n1 [CHLORAZANIL] | > 30 | > 30 | > 30 | > 30 | > 30 | > 30 | > 30 | > 30 | > 30 | > 30 | > 30
O=C(O)CC(O)(CC(=O)O)C(=O)O [CITRIC ACID] | > 30 | > 30 | > 30 | > 30 | > 30 | > 30 | > 30 | > 30 | > 30 | > 30 | > 30
CC[C@H]1OC(=O)[C@H](C)[C@@H](O[C@H]2C[C@@](C)(OC)[C@@H](O)[C@H](C)O2)[C@H](C)[C@@H](O[C@@H]2O[C@H](C)C[C@H](N(C)C)[C@H]2O)[C@](C)(OC)C[C@@H](C)C(=O)[C@H](C)[C@@H](O)[C@]1(C)O [CLARITHROMYCIN] | > 30 | > 30 | > 30 | > 30 | > 30 | > 30 | > 30 | > 30 | > 30 | > 30 | > 30
CCC[C@@H]1C[C@@H](C(=O)N[C@@H]([C@H]2O[C@H](SC)[C@H](OP(=O)(O)O)[C@@H](O)[C@H]2O)[C@H](C)Cl)N(C)C1 [CLINDAMYCIN PHOSPHATE] | > 30 | > 30 | > 30 | > 30 | > 30 | > 30 | > 30 | > 30 | > 30 | > 30 | > 30
C[C@@H]1C[C@H]2[C@@H]3C[C@H](F)C4=CC(=O)C=C[C@]4(C)[C@@]3(Cl)[C@@H](O)C[C@]2(C)[C@H]1C(=O)COC(=O)C(C)(C)C [CLOCORTOLONE PIVALATE] | > 30 | > 30 | > 30 | > 30 | > 30 | 0.0118 | > 30 | > 30 | > 30 | > 10 | > 30
O=P(O)(O)C(Cl)(Cl)P(=O)(O)O [CLODRONIC ACID] | > 30 | > 30 | > 30 | > 30 | > 30 | > 30 | > 30 | > 30 | > 30 | > 30 | > 30
Nc1ccncc1 [DALFAMPRIDINE] | > 30 | > 30 | > 30 | > 30 | > 30 | > 30 | > 30 | > 30 | > 30 | > 30 | > 30
Cc1onc(-c2c(Cl)cccc2Cl)c1C(=O)N[C@@H]1C(=O)N2[C@@H]1SC(C)(C)[C@@H]2C(=O)O [DICLOXACILLIN] | > 30 | > 30 | > 30 | > 30 | > 30 | > 30 | > 30 | > 30 | > 30 | > 30 | > 30
C[C@H]1O[C@@H](O[C@H]2[C@@H](O)C[C@H](O[C@H]3[C@@H](O)C[C@H](O[C@H]4CC[C@@]5(C)[C@H](CC[C@@H]6[C@@H]5CC[C@]5(C)[C@@H](C7=CC(=O)OC7)CC[C@]65O)C4)O[C@@H]3C)O[C@@H]2C)C[C@H](O)[C@@H]1O [DIGITOXIN] | > 30 | > 30 | > 30 | > 30 | > 30 | > 30 | > 30 | > 30 | > 30 | > 30 | > 30
OC(CCCN1CCCCC1)(c1ccccc1)c1ccccc1 [DIPHENIDOL] | > 30 | > 30 | > 30 | > 30 | 6.87 | > 30 | > 30 | > 30 | 12.5 | > 30 | > 30
O=C(CCCN1CC=C(n2c(=O)[nH]c3ccccc32)CC1)c1ccc(F)cc1 [DROPERIDOL] | > 30 | > 30 | > 30 | > 30 | > 30 | > 30 | > 30 | > 30 | > 30 | > 30 | > 30
CCn1cc(C(=O)O)c(=O)c2cc(F)c(N3CCNCC3)nc21 [ENOXACIN] | > 30 | > 30 | > 30 | > 30 | > 30 | > 30 | > 30 | > 30 | > 30 | > 30 | > 30
